The text below walks through data of PubChem BioAssay (NCI).

Common to all, as to test: NCI anticancer screen, dose series, 48 h
The subject of assay [1] is HT29 colon.
For assay [2], the system named is SR leukemia.
The test system of assay [3] is UACC-62 melanoma.
Assay [4] has as its system HOP-92 NSCLC.
Assay [5] has as its system MDA-MB-231 breast.
Assay [6] concerns SF-268 CNS.
The test system of assay [7] is UO-31 renal.
The subject of assay [8] is CCRF-CEM leukemia.

Each structure is given as a SMILES string.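 Grown in 96-well plates, cells were treated for 48 hours with each compound at five concentrations. Insufficient inhibition: endpoint recorded as highest concentration tested. TGI: concentration producing complete growth inhibition.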 Where only a bound is given, the exact number is not on record here.

Turning to `NS(=O)(=O)c1ccc(Nc2c3ccccc3nc3c(C(=O)NC(CO)(CO)CO)cccc23)cc1`, the TGI is 0.45 µM in assay [1]; more than 1 µM in assay [2]; 0.318 µM in assay [3]; 0.389 µM in assay [4]; 0.434 µM in assay [5]; 0.486 µM in assay [6]. Moreover, the TGI in assay [7] stood at 0.366 µM; in assay [8], 0.891 µM.
Consider `CC(C)C1OC(=O)C(Cc2ccccc2)N(C)C(=O)C(C(C)C)OC(=O)C(Cc2ccccc2)N(C)C(=O)C(C(C)C)OC(=O)C(Cc2ccccc2)N(C)C1=O` (centres undefined), for which the TGI in assay [1] turned out to be 2.07 µM; in assay [2] it was 4.06 µM; in assay [3], 1.98 µM; in assay [4] it was 1.3 µM; in assay [5], 2.67 µM; in assay [6], 3.2 µM. Besides, the TGI in assay [7] was determined as 1.27 µM; in assay [8], 1.59 µM.
Consider `COC(=O)c1sc2c(c1C(=O)OC)C(=Nc1ccc(OC)cc1)SC2=Nc1ccc(OC)cc1`, for which the TGI is 1.73 µM in assay [1]; more than 100 µM in assay [2]; 2.84 µM in assay [3]; 2.91 µM in assay [4]; 2.35 µM in assay [5]; 3.61 µM in assay [6]. The TGI was found to be 2.11 µM in assay [7] and 0.289 µM in assay [8].
As for `CCOc1c2c(cc3c1C(=O)c1c(OC)cccc1C3=O)C=C(OC)CC2`, the TGI in assay [1] was more than 25 µM; in assay [2] it was 22.9 µM; in assay [3] it was more than 25 µM; in assay [4], more than 25 µM; in assay [5], more than 25 µM; in assay [6], more than 25 µM. In addition, the TGI in assay [7] and in assay [8] was more than 25 µM in each case.
In the case of `O=[N+]([O-])C(/C=C(\Cl)[N+](=O)[O-])=C(N1CCOCC1)N1CCOCC1`, the TGI in assay [1] was 83.1 µM; in assay [2], more than 100 µM; in assay [3] it was more than 100 µM; in assay [4], 76.4 µM; in assay [5], 43.7 µM; in assay [6] it was more than 100 µM. The TGI was 54 µM in assay [7] and more than 100 µM in assay [8].
`NC1CC(=O)c2c(I)sc(I)c21` (centres undefined): the TGI in assay [1] was 50.6 µM; in assay [2], 48.4 µM; in assay [3] it was 32.6 µM; in assay [4], 43.5 µM; in assay [5] it was 38.1 µM; in assay [6], 46.1 µM. Moreover, the TGI in assay [7] was 35.5 µM; in assay [8] it was more than 34.3 µM.
Consider `O=C(OC1C#CCSCC#C/C=C\1)c1ccc2c(c1)C(=O)c1ccccc1C2=O` (centres undefined), for which the TGI is more than 100 µM in assay [1]; more than 100 µM in assay [2]; 34.2 µM in assay [3]; 13.7 µM in assay [4]; 82.4 µM in assay [5]; 69.1 µM in assay [6]. Besides, the TGI in assay [7] and in assay [8] was more than 100 µM throughout.
As to `CCc1nnc2sc(-c3ccc(-c4ccccc4[N+](=O)[O-])o3)nn12`, the TGI in assay [1] is more than 100 µM; in assay [2], 72.6 µM; in assay [3], more than 100 µM; in assay [4], more than 100 µM; in assay [5], more than 100 µM; in assay [6] it was more than 100 µM. Further, the TGI in assay [7] and in assay [8] was more than 100 µM in each case.
In the case of `CCn1c(=O)c2nc(SC)sc2n(-c2ccccc2)c1=S`, the TGI in assay [1] was more than 100 µM; in assay [2], more than 100 µM; in assay [3], 97.6 µM; in assay [4], more than 100 µM; in assay [5], more than 100 µM; in assay [6], more than 100 µM. Also, the TGI in assay [7] was 35.4 µM; in assay [8], more than 100 µM.
As to `Cc1cccc(NC(=S)NNC(=O)c2cc(-c3ccccc3)nc3ccccc23)c1`, the TGI was more than 100 µM in assay [1]; 41.1 µM in assay [2]; 99.7 µM in assay [3]; 68.5 µM in assay [4]; 95 µM in assay [5]; more than 100 µM in assay [6]. Further, the TGI in assay [7] was determined as 57.1 µM; in assay [8], 35.4 µM.
On to `CCCCCCCC(=O)NC(C)(C)C(=O)NCC(=O)NC(CC(C)C)C(=O)NC(C)(C)C(=O)NCC(=O)NCC(=O)NC(CC(C)C)C(=O)NC(C)(C)C(=O)NCC(=O)NC(C(=O)NC(CO)CC(C)C)C(C)CC` (centres undefined), for which the TGI was 7.42 µM in assay [1]; 8.63 µM in assay [2]; 7.54 µM in assay [3]; 6.36 µM in assay [4]; 7.38 µM in assay [5]; 7.5 µM in assay [6]. Also, the results for the TGI in assay [7] and in assay [8] were 7.93 µM and 11.7 µM, respectively.
As for `C/C(=C\COP(=O)(O)OP(=O)(O)O)CC/C=C(\C)CNc1c(F)c(F)c(F)c(F)c1F`, the TGI in assay [1] was more than 100 µM; in assay [2], 0.308 µM; in assay [3] it was more than 100 µM; in assay [4] it was more than 100 µM; in assay [5] it was more than 100 µM; in assay [6], more than 100 µM. Besides, the TGI in assay [7] is more than 100 µM; in assay [8], 1.26 µM.
As for `CCOC(=O)c1cccc(N=NNc2cccc(C(=O)OCC)c2)c1`, the TGI in assay [1] is more than 100 µM; in assay [2], more than 100 µM; in assay [3] it was more than 100 µM; in assay [4], 46.8 µM; in assay [5], 53.3 µM; in assay [6] it was 80.8 µM. The TGI is 45.6 µM in assay [7] and more than 100 µM in assay [8].
For `CC[C@@]1(O)C(=O)OCc2c1cc1n(c2=O)Cc2c-1nc1ccc(N)cc1c2CC[Si](C)(C)C`, the TGI in assay [1] is 11.6 µM; in assay [2], less than 0.01 µM; in assay [3], less than 0.0104 µM; in assay [4] it was 1.07 µM; in assay [5] it was 0.428 µM; in assay [6] it was 1.76 µM. Also, the TGI in assay [7] is less than 0.0173 µM; in assay [8], less than 0.01 µM.
With `Cc1ccc([N+](=O)[O-])cc1S(=O)(=O)Nc1ccc(C2=NN(S(=O)(=O)c3cc([N+](=O)[O-])ccc3C)C(c3ccccc3O)C2)cc1` (centres undefined), the TGI in assay [1], in assay [2], in assay [3], in assay [4], in assay [5] and in assay [6] was more than 100 µM in each case. Moreover, the TGI in assay [7] and in assay [8] was more than 100 µM in each case.
As for `COc1ccc(/C=N/n2c(-c3ccccc3)n[nH]c2=O)c(OC)c1`, the TGI was 76.3 µM in assay [1]; more than 100 µM in assay [2]; more than 100 µM in assay [3]; more than 100 µM in assay [4]; more than 100 µM in assay [5]; 71.9 µM in assay [6]. Moreover, the TGI in assay [7] is more than 70 µM; in assay [8], more than 100 µM.
As for `Clc1ccc(Cc2nc3cc4ccccc4cc3[nH]2)cc1Cl`, the TGI in assay [1] worked out at 28.5 µM; in assay [2], 30.8 µM; in assay [3] it was 34.2 µM; in assay [4], 30.6 µM; in assay [5], 38 µM; in assay [6] it was 62.7 µM. Further, the results for the TGI in assay [7] and in assay [8] were 28.5 µM and more than 100 µM, respectively.
For `CCC(C)C(NC(=O)c1cccc2c(=O)c3ccccc3[nH]c12)C(=O)O` (centres undefined), the TGI in assay [1], in assay [2], in assay [3], in assay [4], in assay [5] and in assay [6] was more than 100 µM throughout. Moreover, the TGI in assay [7] and in assay [8] was more than 100 µM in each case.
As to `NC1=Nc2ncccc2C(=O)NN1`, the TGI in assay [1], in assay [2], in assay [3], in assay [4], in assay [5] and in assay [6] was more than 10 µM in each case. The TGI in assay [7] and in assay [8] was more than 10 µM each time.
As for `CC(C)=CC(=O)c1[nH]c2ccccc2c1CC(=O)NCCc1cnc[nH]1`, the TGI in assay [1], in assay [2], in assay [3], in assay [4], in assay [5] and in assay [6] was more than 100 µM each time. In addition, the TGI in assay [7] and in assay [8] was more than 100 µM in each case.
With `COc1cccc(C2c3cc4c(cc3OC(NNS(=O)(=O)c3ccc(C)cc3)C2C)OCO4)c1O` (centres undefined), the TGI was 47.1 µM in assay [1]; 26.2 µM in assay [2]; 79.7 µM in assay [3]; 76.3 µM in assay [4]; 49.2 µM in assay [5]; more than 100 µM in assay [6]. Also, the TGI in assay [7] was more than 100 µM; in assay [8] it was 43.6 µM.
As for `COc1cc2c(cc1C)NC(=O)/C2=C/c1c(Cl)[nH]c2ccccc12`, the TGI in assay [1] worked out at 14.4 µM; in assay [2], 23.1 µM; in assay [3], 14.4 µM; in assay [4], 25 µM; in assay [5], 16.9 µM; in assay [6] it was 17.7 µM. The TGI stood at 25.8 µM in assay [7] and 17.2 µM in assay [8].
As for `O=C1OCOC2(CCCC2)C1c1ccccc1` (centres undefined), the TGI in assay [1], in assay [2], in assay [3], in assay [4], in assay [5] and in assay [6] was more than 100 µM in each case. In addition, the TGI in assay [7] and in assay [8] was more than 100 µM throughout.
